Data on ten molecules can be found in ChEMBL document CHEMBL1201862, “PubChem BioAssay data set” (2004).

Some test systems named below: 786-0; A549; ACHN; CAKI-1; CCRF-CEM; HCT-116; K562; MCF7; Malme-3M; NCI-H226; OVCAR-5; SF-539; SK-MEL-28; SN12C; SNB-19; SNB-75; T47D; U-251; NCI-H460; SF-268.
What all share (experiment): inhibition of tumour cell growth, NCI panel, 48 h

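Results reflect a 48-hour exposure of cells in 96-well plates to compound at five concentrations. GI50 = concentration required for 50% inhibition of growth.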 Calls of active or inactive are those of the source. No stated cut-off is given here; in the data, active = GI50 up to about 1.1 µM and inactive = higher.

With `O=C1O/C(=C/c2ccccc2)C(c2ccccc2)=C1O`, the GI50 in the assay on 786-0 is 46.7 µM (inactive); in the assay with A549, 33.3 µM (inactive); with ACHN, 74 µM (inactive); with CAKI-1, 47.3 µM (inactive); in the assay with CCRF-CEM, 29.7 µM (inactive); in the assay on HCT-116, 36.9 µM (inactive). The GI50 was 41.1 µM (inactive) in the assay on K562; 34.4 µM (inactive) with MCF7; 60.7 µM (inactive) in the assay with Malme-3M; > 100 µM (inactive) in the assay on NCI-H226; > 100 µM (inactive) in the assay with OVCAR-5; 37.9 µM (inactive) in the assay with SF-539. Besides, the GI50 in the assay with SK-MEL-28 was 35.5 µM (inactive); in the assay on SN12C, 33 µM (inactive); with SNB-19, 47.5 µM (inactive); in the assay on SNB-75, 67.3 µM (inactive); with T47D, 27.2 µM (inactive); in the assay on U-251, 31.3 µM (inactive).

Regarding `O=C(N/C(=C/c1ccc(Cl)cc1)c1nc2ccccc2c(=O)n1Nc1ccc([N+](=O)[O-])cc1[N+](=O)[O-])c1ccccc1`, the GI50 in the assay on 786-0, with A549, with CAKI-1, in the assay with CCRF-CEM, in the assay with HCT-116 and in the assay with K562 was > 100 µM (inactive) each time. Besides, the GI50 with MCF7, in the assay on Malme-3M, in the assay on NCI-H226, with NCI-H460, with OVCAR-5 and in the assay with SF-539 was > 100 µM (inactive) each time. The GI50 with SK-MEL-28, with SN12C, in the assay with SNB-19, with SNB-75, in the assay with T47D and in the assay on U-251 was > 100 µM (inactive) in each case.

In the case of `Nc1nc(Cl)cc(NCC2(CCO)CCC2)n1`, the GI50 with 786-0, in the assay on A549, with ACHN, in the assay on CAKI-1, with CCRF-CEM and with HCT-116 was > 100 µM (inactive) in each case. Besides, the GI50 in the assay on K562, in the assay on MCF7, in the assay with Malme-3M, in the assay on NCI-H226, in the assay with NCI-H460 and in the assay on OVCAR-5 was > 100 µM (inactive) in each case. For the same molecule, the GI50 in the assay with SF-539 was > 100 µM (inactive); with SK-MEL-28 it was > 100 µM (inactive); in the assay on SN12C, > 100 µM (inactive); with SNB-19 it was > 100 µM (inactive); in the assay with SNB-75, > 10 µM (inactive); in the assay with T47D it was 22.2 µM (inactive). Further, the GI50 with U-251 is > 100 µM (inactive).

Take `CC1=CC2(C)C=C[C@@H]1C(=O)[C@@]1(C)CC[C@@](O)(C(C)C)[C@H]1CC2`: the GI50 in the assay on 786-0 is 17.3 µM (inactive); in the assay with A549 it was 34.6 µM (inactive); with ACHN it was 17.6 µM (inactive); in the assay with CCRF-CEM, 21.6 µM (inactive); in the assay with HCT-116, 17.3 µM (inactive); with K562, 20 µM (inactive). Also, the GI50 with MCF7 is 28.4 µM (inactive); in the assay with Malme-3M, 19.4 µM (inactive); in the assay with NCI-H226, 23.4 µM (inactive); in the assay on NCI-H460 it was 18.4 µM (inactive); in the assay on OVCAR-5, 17.9 µM (inactive); with SF-268, 23.8 µM (inactive). The GI50 in the assay with SF-539 is 18.9 µM (inactive); in the assay with SK-MEL-28 it was 20.9 µM (inactive); in the assay on SN12C, 20.9 µM (inactive); with SNB-19 it was 23.6 µM (inactive); in the assay with SNB-75, 20.9 µM (inactive); with T47D, 25.8 µM (inactive). Besides, the GI50 with U-251 was 18.1 µM (inactive).

As for `O=C(O)Cc1ccc(Nc2nc3ccccc3nc2C(=O)O)cc1`, the GI50 with 786-0, in the assay on A549, with ACHN, in the assay on CAKI-1, with CCRF-CEM and in the assay on HCT-116 was > 100 µM (inactive) in each case. In addition, the GI50 in the assay on MCF7, in the assay with Malme-3M, with NCI-H226, with NCI-H460, in the assay with OVCAR-5 and in the assay with SF-268 was > 100 µM (inactive) each time. In addition, the GI50 with SF-539, in the assay with SK-MEL-28, in the assay on SN12C, in the assay on SNB-19, with SNB-75 and in the assay on T47D was > 100 µM (inactive) in each case. Moreover, in the assay on U-251, the GI50 is > 100 µM (inactive).

On to `CCCCCCc1cc2cc(-c3csc(-c4ccc(OC)cc4)n3)c(=O)oc2cc1O`, for which the GI50 in the assay with 786-0 was 5.28 µM (inactive); with A549 it was 16.7 µM (inactive); in the assay with ACHN it was 10.9 µM (inactive); with CAKI-1, 6.73 µM (inactive); in the assay with CCRF-CEM, 22.6 µM (inactive); in the assay on HCT-116, 7.19 µM (inactive). The GI50 with K562 was 19.3 µM (inactive); with MCF7, 17.8 µM (inactive); with NCI-H226, 14 µM (inactive); in the assay on NCI-H460, 12.2 µM (inactive); with OVCAR-5 it was 26.7 µM (inactive); in the assay with SF-268, 4.79 µM (inactive). Besides, the GI50 was 12.8 µM (inactive) in the assay with SF-539; 10.2 µM (inactive) with SK-MEL-28; 10.4 µM (inactive) in the assay on SN12C; 9.95 µM (inactive) with SNB-19; 14.7 µM (inactive) with SNB-75; 7.82 µM (inactive) with T47D. Also, the GI50 with U-251 is 5.24 µM (inactive).

For `CCOC(=O)C(C/C=C/CO)N(C)C(=O)OC(C)(C)C` (configuration not stated), the GI50 was > 100 µM (inactive) in the assay with 786-0; > 100 µM (inactive) with A549; > 100 µM (inactive) in the assay on ACHN; > 100 µM (inactive) with CAKI-1; 28.1 µM (inactive) in the assay on CCRF-CEM; > 100 µM (inactive) in the assay with HCT-116. Further, the GI50 with K562 is 83.9 µM (inactive); with MCF7 it was > 100 µM (inactive); in the assay on NCI-H226 it was > 100 µM (inactive); in the assay on NCI-H460 it was > 100 µM (inactive); in the assay on OVCAR-5 it was > 100 µM (inactive); in the assay with SF-268, 92.9 µM (inactive). The GI50 with SF-539 was > 100 µM (inactive); in the assay on SK-MEL-28, > 100 µM (inactive); in the assay on SN12C, > 100 µM (inactive); in the assay on SNB-19 it was > 100 µM (inactive); in the assay with SNB-75 it was 50.9 µM (inactive); in the assay with T47D, > 100 µM (inactive). Besides, the GI50 with U-251 is > 100 µM (inactive).

Consider `COc1ccc(N(c2ccc(C#N)cc2)c2ccc(C#N)cc2)cc1`, for which the GI50 is > 100 µM (inactive) in the assay with 786-0; > 100 µM (inactive) with A549; > 100 µM (inactive) with ACHN; > 100 µM (inactive) in the assay on CAKI-1; 3.07 µM (inactive) with CCRF-CEM; 93.5 µM (inactive) in the assay on HCT-116. The GI50 with MCF7 was 26 µM (inactive); in the assay on NCI-H226 it was > 100 µM (inactive); in the assay on NCI-H460, > 100 µM (inactive); in the assay with OVCAR-5 it was > 100 µM (inactive); in the assay with SF-268 it was > 100 µM (inactive); in the assay on SF-539 it was > 100 µM (inactive). In addition, the GI50 in the assay with SK-MEL-28 is > 100 µM (inactive); in the assay on SN12C, > 100 µM (inactive); in the assay on SNB-19, > 100 µM (inactive); with SNB-75, > 100 µM (inactive); with T47D it was 4.57 µM (inactive); in the assay on U-251 it was > 100 µM (inactive).

For `C/C(=N\Nc1nc2ccccc2s1)c1cc2ccccc2cn1`, the GI50 was 2.52 µM (inactive) with 786-0; 3.66 µM (inactive) with A549; 2.88 µM (inactive) in the assay on ACHN; 3.03 µM (inactive) in the assay on CAKI-1; 2.81 µM (inactive) with CCRF-CEM; 3.03 µM (inactive) in the assay with HCT-116. In addition, the GI50 in the assay with MCF7 is 0.27 µM (active); in the assay on Malme-3M it was 4.61 µM (inactive); in the assay with NCI-H226 it was 1.73 µM (inactive); with NCI-H460, 3.56 µM (inactive); with OVCAR-5, 4.38 µM (inactive); with SF-268, 7.43 µM (inactive). In addition, the GI50 with SF-539 was 3.83 µM (inactive); in the assay on SK-MEL-28, 6.3 µM (inactive); in the assay with SN12C, 4.29 µM (inactive); in the assay with SNB-19, 13.6 µM (inactive); with SNB-75, 3.24 µM (inactive); in the assay with T47D, 0.378 µM (active). Further, in the assay on U-251, the GI50 was 4.68 µM (inactive).

In the case of `C/C=C/C[C@@H](C)C(=O)C1C(=O)N[C@@H](C(C)C)C(=O)N(C)CC(=O)N(C)[C@@H](CC(C)C)C(=O)N[C@@H](C(C)C)C(=O)N(C)[C@@H](CC(C)C)C(=O)N[C@@H](C)C(=O)N[C@@H](C)C(=O)N(C)[C@@H](CC(C)C)C(=O)N(C)[C@@H](CC(C)C)C(=O)N(C)[C@@H](C(C)C)C(=O)N1C` (some centres not stated), the GI50 in the assay with 786-0 is 7.76 µM (inactive); with A549, 3.97 µM (inactive); in the assay with ACHN, 4.4 µM (inactive); in the assay with CAKI-1 it was 12.8 µM (inactive); in the assay on CCRF-CEM, 4.06 µM (inactive); in the assay with HCT-116 it was 3.03 µM (inactive). Besides, the GI50 in the assay on K562 was 4.45 µM (inactive); in the assay with MCF7 it was 3.95 µM (inactive); in the assay on NCI-H226 it was 6.11 µM (inactive); with NCI-H460 it was 6.01 µM (inactive); in the assay on OVCAR-5, 7.87 µM (inactive); with SF-268 it was 7.89 µM (inactive). Moreover, the GI50 in the assay on SF-539 is 4.23 µM (inactive); with SK-MEL-28, 6.37 µM (inactive); in the assay on SN12C, 5.58 µM (inactive); with SNB-19, 14 µM (inactive); in the assay with SNB-75 it was 4.98 µM (inactive); in the assay with T47D, 3.03 µM (inactive). In addition, the GI50 with U-251 was 5.94 µM (inactive).
